{"source": "patent US5599812A", "about": "“Tricyclic pyrrolopyrazine 5-HT3 -active compounds” (Adir Et Compagnie, priority 1993, dated 1997)", "key": {"5-HT3 receptors [1]": {"target": "T1, 5-HT3 receptors (Rattus norvegicus, UniProt P35563)", "T1 construct": "bradycardia induced by stimulation of 5-HT3 receptors on vagal afferent neurons; from tissue; host or cells: whole anesthetized rat; receptors on vagal afferent neurons", "T1 sequence (P35563 24-483)": "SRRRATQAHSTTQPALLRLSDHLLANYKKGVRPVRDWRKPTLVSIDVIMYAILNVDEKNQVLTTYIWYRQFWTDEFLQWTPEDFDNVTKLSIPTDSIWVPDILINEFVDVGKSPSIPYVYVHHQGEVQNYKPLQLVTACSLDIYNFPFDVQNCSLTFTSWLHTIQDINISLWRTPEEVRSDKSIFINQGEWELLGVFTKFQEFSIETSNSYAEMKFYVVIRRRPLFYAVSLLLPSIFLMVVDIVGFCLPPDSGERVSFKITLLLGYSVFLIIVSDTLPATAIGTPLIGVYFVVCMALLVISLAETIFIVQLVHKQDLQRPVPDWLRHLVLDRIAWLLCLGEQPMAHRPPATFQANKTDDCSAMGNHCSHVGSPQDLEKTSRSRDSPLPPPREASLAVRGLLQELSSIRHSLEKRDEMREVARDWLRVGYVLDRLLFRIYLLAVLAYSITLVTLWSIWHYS", "assay": "Bradycardic Bezold-Jarisch reflex in anesthetized rats", "format": "in vivo, Sprague-Dawley", "settings": "for dose completely preventing the agonist-induced bradycardia: prior i.v. administration, against 30 μg i.v. agonist; for fall in the cardiac rhythm / duration of the fall in the cardiac rhythm: i.v. injection of 30 μg; for duration of the fall in the cardiac rhythm: approximately", "procedure": "Bradycardia (Bezold-Jarisch reflex) is induced by the intravenous injection of 5-HT3 serotonin in rats anesthetized with urethane.\nThis response consists of a violent but transitory bradycardia induced by stimulation of 5-HT3 receptors on vagal afferent neurons.\nThe animal (adult male rat, Sprague-Dawley strain, 250-300 g) is first of all anesthetized with urethane (1.4 g/kg i.p.) and then a tracheotomy is performed in order to implant a tracheal cannula. A catheter (0.3 mm)is introduced into the abdominal aorta via the femoral artery for the continuous recording of the arterial pressure and the cardiac rhythm.\nBradycardia is expressed as percentage of lowering (maximum) of the base rhythm, before any treatment (means±M.S.D.)."}, "5-HT3 receptors [2]": {"target": "T2, 5-HT3 receptors (Mus musculus, UniProt P23979)", "T2 sequence (P23979 24-489)": "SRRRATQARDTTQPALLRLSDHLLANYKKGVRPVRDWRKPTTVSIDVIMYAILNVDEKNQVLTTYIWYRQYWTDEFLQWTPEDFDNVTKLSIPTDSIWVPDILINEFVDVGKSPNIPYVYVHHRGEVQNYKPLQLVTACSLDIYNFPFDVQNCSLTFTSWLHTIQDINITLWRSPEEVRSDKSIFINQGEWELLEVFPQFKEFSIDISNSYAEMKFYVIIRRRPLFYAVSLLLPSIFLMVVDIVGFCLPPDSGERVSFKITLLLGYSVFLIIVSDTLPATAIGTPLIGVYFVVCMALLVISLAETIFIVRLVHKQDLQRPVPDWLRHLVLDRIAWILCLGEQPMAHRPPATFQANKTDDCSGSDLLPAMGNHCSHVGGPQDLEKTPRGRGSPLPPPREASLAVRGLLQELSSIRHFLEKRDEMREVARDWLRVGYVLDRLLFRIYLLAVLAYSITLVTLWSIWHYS", "assay": "Accumulation of 14C-guanidinium in NG 108-15 cells", "settings": "for multiplication of the intracellular accumulation of 14C-guanidinium: fold, agonist at 10 μM-0.1 mM", "procedure": "The accumulation of ^14 -C-guanidinium in NG 108-15 cells is measured and makes it possible to study the interaction of the tested compounds with 5-HT3 receptors, knowing that this accumulation is stimulated by agonists of 5-HT3 receptors.\nThe NG 108-15 hybrid clone (neuroblastoma-glioma) is cultured under standard conditions (Dulbecco's medium to which 40 mM of sodium bicarbonate, 1.8 mM of L-glutamine, 0.1 mM of hypoxanthine, 1 μM of aminopterin, 16 μM of thymine and 10% of fetal calf serum are added) at 37° C. in an atmosphere enriched in CO2 (7%). At confluence (.congruent.3.5×10^5 cells in dishes with diameters of 35 mm), the culture medium is sucked off and the cell lawn is rapidly washed with 3 cm^3 of a HEPES (20 mM) buffer containing 145 mM of NaCl, 5.4 mM of KCl, 1.8 mM of CaCl2, 1.0 mM of MgCl2 and 20 mM of glucose, pH 7.4. […] The incubation lasts 10 minutes at 37° C. The medium is then sucked off and the cells are rapidly washed twice with 3 cm^3 of the washing buffer in which the NaCl has been fully replaced by an equimolar concentration of choline chloride. Finally, the cell lawn is taken up in 0.5 cm^3 of 0.4N sodium hydroxide solution and the accumulated radioactivity is counted by spectrometry in liquid medium (Aquasol)."}, "[3]": {"assay": "Solubility in DMSO (NMR remark)", "format": "physicochemical", "settings": "d6-DMSO, tetrahydrochloride"}, "[4]": {"settings": "doses (I.V.) 30, 60 and 120 μg·Kg^-1 (one value given)"}}, "data": [{"smiles": "Cc1nccn1CC1CCc2c(c3ccccc3n2C)C1=O", "note": "(stereo not shown) [ondansetron]", "values": [{"measurement": "dose completely preventing the agonist-induced bradycardia", "setting": "5-HT3 receptors [1]", "result": 1, "unit": "µg/kg"}]}, {"smiles": "NCCc1c[nH]c2ccc(O)cc12", "note": "[serotonin]", "values": [{"measurement": "multiplication of the intracellular accumulation of 14C-guanidinium", "setting": "5-HT3 receptors [2]", "result": 5}, {"measurement": "Agonist Effect, Bradycardia %", "setting": "5-HT3 receptors [1]; dose (I.V.) 30 μg·Kg^-1, n = 21, maximum lowering of base rhythm, means ± M.S.D.", "result": "68.0 ± 2.3", "unit": "%"}, {"measurement": "fall in the cardiac rhythm", "setting": "5-HT3 receptors [1]", "result": -80, "unit": "%"}, {"measurement": "duration of the fall in the cardiac rhythm", "setting": "5-HT3 receptors [1]", "result": "4 to 5", "unit": "s"}]}, {"smiles": "Fc1ccc(CN2CCN(c3nc4cc(Cl)ccc4n4cccc34)CC2)cc1", "note": "[Example 4, 7-CHLORO-4-[4-(4-FLUOROBENZYL)PIPERAZINO]PYRROLO[1,2-a]QUINOXALINE]", "values": [{"measurement": "EC50", "setting": "5-HT3 receptors [2]", "result": 100, "unit": "nM"}, {"measurement": "Antagonist effect at (concentration)", "setting": "5-HT3 receptors [2]; antagonist effect, 14C-guanidinium accumulation, NG 108-15 cells", "result": 3, "unit": "nM"}, {"measurement": "Agonist Effect, Bradycardia %", "setting": "5-HT3 receptors [1]; [4]", "result": 0, "unit": "%"}]}, {"smiles": "COc1cc(N)c(Cl)cc1C(=O)NC1CN2CCC1CC2", "note": "(stereo not shown) [zacopride]", "values": [{"measurement": "dose completely preventing the agonist-induced bradycardia", "setting": "5-HT3 receptors [1]", "result": 1, "unit": "µg/kg"}]}, {"smiles": "Cc1[nH]c2ccc(O)cc2c1CCN", "note": "[2-methyl-5-hydroxytryptamine]", "values": [{"measurement": "multiplication of the intracellular accumulation of 14C-guanidinium", "setting": "5-HT3 receptors [2]", "result": 5}, {"measurement": "fall in the cardiac rhythm", "setting": "5-HT3 receptors [1]", "result": -80, "unit": "%"}, {"measurement": "duration of the fall in the cardiac rhythm", "setting": "5-HT3 receptors [1]", "result": "4 to 5", "unit": "s"}]}, {"smiles": "c1ccc(CN2CCN(c3ccc4nc(N5CCN(Cc6ccccc6)CC5)c5cccn5c4n3)CC2)cc1", "note": "[Example 93, 2,6-bis(4-benzylpiperazino)pyrido[3,2-e]pyrrolo[1,2-a]pyrazine]", "values": [{"measurement": "solubility in DMSO", "setting": "[3]", "result": "insoluble"}]}, {"smiles": "c1ccc(CN2CCN(c3nc4ccccc4n4cccc34)CC2)cc1", "note": "[Example 1, 4-(4-benzylpiperazino)pyrrolo[1,2-a]quinoxaline]", "values": [{"measurement": "EC50", "setting": "5-HT3 receptors [2]", "result": "~100", "unit": "nM"}]}, {"smiles": "Clc1ccc2c(c1)nc(N1CCN(Cc3ccccc3)CC1)c1cccn12", "note": "[Example 3, 4-(4-benzylpiperazino)-7-chloropyrrolo[1,2-a]quinoxaline]", "values": [{"measurement": "EC50", "setting": "5-HT3 receptors [2]", "result": 50, "unit": "nM"}, {"measurement": "Agonist Effect, Bradycardia %", "setting": "5-HT3 receptors [1]; [4]", "result": 0, "unit": "%"}]}, {"smiles": "c1ccc(CN2CCN(c3nc4cccnc4n4cccc34)CC2)cc1", "note": "[Example 11, 6-(4-benzylpiperazino)pyrido[3,2-e]pyrrolo [1,2-a]pyrazine]", "values": [{"measurement": "EC50", "setting": "5-HT3 receptors [2]", "result": 30, "unit": "nM"}, {"measurement": "Antagonist effect at (dose)", "setting": "5-HT3 receptors [1]; I.V., rat, Bezold-Jarisch reflex", "result": 120, "unit": "µg/kg"}, {"measurement": "Agonist Effect, Bradycardia %", "setting": "5-HT3 receptors [1]; dose (I.V.) 120 μg·Kg^-1, n = 7, maximum lowering of base rhythm, means ± M.S.D.", "result": "59.4 ± 7.2", "unit": "%"}]}]}
